Assay results: PMC7356956, “1-(1-Arylethylpiperidin-4-yl)thymine Analogs as Antimycobacterial TMPK Inhibitors” (Molecules, 2020)
Converted amounts (≈) assume the structure as drawn. Read-outs that look alike come from different tables or passages of the source.

Key:
[1] = tested on: M. tuberculosis H37Rv (ATCC 27294); assay: In vitro antituberculosis assay (MIC, broth microdilution); assay type: cell-based, Mycobacterium tuberculosis; conditions: for MIC: read-out: MIC (H37Rv)
MRC-5 fibroblasts = assay: In vitro cytotoxicity assay on MRC-5 fibroblasts; assay type: cell-based; conditions: for SI (selectivity index): IC50 (MRC-5)/MIC (H37Rv)
Method: (§1) The cytotoxicity of compounds on MRC-5 fibroblasts was performed exactly as previously reported.

MtbTMPK [2] = target: T1, MtbTMPK (Mycobacterium tuberculosis, UniProt P9WKE1); parameters: method as in PMID 29510037, PMID 27614917
MtbTMPK [3] = target: T1, MtbTMPK; assay: MtbTMPK enzymatic assay (spectrophotometric coupled assay); assay type: biochemical; conditions: for MtbTMPK inhibitory potency, in words: qualitative statement, compared with 3
Method: The enzymatic assay was performed as previously reported on the recombinant purified MtbTMPK [14, 33]. As described by Blondin et al., compounds were evaluated by a serial dilution method using the spectrophotometric assay at fixed concentrations of adenosine triphosphate (ATP) (0.5 mM) and thymidine monophosphate (dTMP; 0.05 mM). The reaction medium includes 50-mM Tris-HCl; pH 7.4; 50-mM KCl; 2-mM MgCl2; 0.2-mM nicotinamide adenine dinucleotide (NADH); 1-mM phosphoenol pyruvate and 2 units each of coupling enzymes (lactate dehydrogenase, pyruvate kinase and nucleoside diphosphate kinase). From the experimental data, the IC50 value was calculated using KaleidaGraph 4.5.3.

[4] = In vitro cytotoxicity assay on MRC-5 fibroblasts; assay type: cell-based; conditions: human
Method: as §1

[5] = tested on: M. tuberculosis H37Rv (ATCC 27294); conditions: previously reported values; cited from earlier work
[6] = ATP 0.5 mM, dTMP 0.05 mM, mean ± SD of at least two measurements, NI: no inhibition at a concentration of 0.2 mM, read-out: IC50 (MtbTMPK)
[7] = cytotoxicity against MRC-5 fibroblasts, read-out: IC50 (MRC-5)
[8] = Mycobacterium tuberculosis, minimum concentration required to inhibit >99% growth of M. tuberculosis H37Rv in liquid culture, 7–14 days

T1 sequence (P9WKE1 whole entry, looked up): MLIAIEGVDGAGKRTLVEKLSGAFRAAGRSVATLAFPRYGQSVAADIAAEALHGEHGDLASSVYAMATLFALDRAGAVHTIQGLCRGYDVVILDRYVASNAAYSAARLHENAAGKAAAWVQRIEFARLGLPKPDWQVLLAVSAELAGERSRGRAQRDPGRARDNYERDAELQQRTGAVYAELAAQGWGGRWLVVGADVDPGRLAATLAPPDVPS

Row | Molecule | IC50 (MtbTMPK [3]; [6]) | MIC ([1]; Mycobacterium tuberculosis) | IC50 [4, 7] | SI (selectivity index) (MRC-5 fibroblasts) | MtbTMPK inhibitory potency, in words (MtbTMPK [3]) | other results
1 | 1-(1-(3-((3,4-Dichlorobenzyl)oxy)phenethyl)piperidin-4-yl)-5-methylpyrimidine-2,4(1H,3H)-dione [Compound 21p] |  |  |  |  |  | MIC ([1]; minimum concentration required to inhibit >99% growth of M. tuberculosis H37Rv in liquid culture, 7–14 days): 12.5 µM; IC50 (MRC-5 fibroblasts; cytotoxicity against MRC-5 fibroblasts): 4.22 µM
2 | Cc1cn(C2CCCN(Cc3cccc(Oc4ccccc4)c3)C2)c(=O)[nH]c1=O (centres unmarked) [Compound 1] |  |  |  |  |  | IC50 (MtbTMPK [2]; read-out: IC50 (MtbTMPK), reported; previously reported values; cited from earlier work): 21 µM
3 | Cc1cn(C2CCN(CCc3cccc(Oc4ccccc4)c3)CC2)c(=O)[nH]c1=O [Compound 3, reference compound] | 17 ± 2 µM | 37 µM (≈ 15 µg/mL) | > 64 µM | >1.73 |  | IC50 (MtbTMPK [2]; previously reported values; read-out: IC50 (MtbTMPK), reported; cited from earlier work): 11 µM; MIC (H37Rv), reported [5]: 37 µM (≈ 15 µg/mL)
4 | Cc1cn(C2CCN(CCc3ccccc3)CC2)c(=O)[nH]c1=O [Compound 21a, 5-Methyl-1-(1-phenethylpiperidin-4-yl)pyrimidine-2,4(1H,3H)-dione] | 680 ± 90 µM | > 50 µM | > 64 µM |  |  | loss/decrease in MtbTMPK inhibitory potency relative to 3 (MtbTMPK [3]; compared with compound 3): 40 fold
5 | Cc1cn(C2CCN(CCc3ccc(-c4ccccc4)cc3)CC2)c(=O)[nH]c1=O [Compound 21b, 1-(1-(2-([1,1’-Biphenyl]-4-yl)ethyl)piperidin-4-yl)-5-methylpyrimidine-2,4(1H,3H)-dione] | > 200 µM | > 50 µM | 22.2 µM |  | complete loss of enzyme inhibitory potency | 
6 | Cc1cn(C2CCN(CCc3ccccc3Oc3ccccc3)CC2)c(=O)[nH]c1=O [Compound 21c, 5-Methyl-1-(1-(2-phenoxyphenethyl)piperidin-4-yl)pyrimidine-2,4(1H,3H)-dione] | 100 ± 15 µM | 50 µM (≈ 20.3 µg/mL) | 26.8 µM | 0.54 | negative effect on the inhibitory activity | 
7 | Cc1cn(C2CCN(CCc3ccc(Oc4ccccc4)cc3)CC2)c(=O)[nH]c1=O [Compound 21e, 5-Methyl-1-(1-(4-phenoxyphenethyl)piperidin-4-yl)pyrimidine-2,4(1H,3H)-dione] | 160 ± 22 µM | > 50 µM | > 64 µM |  | negative effect on the inhibitory activity | 
8 | Cc1ccc(Oc2cccc(CCN3CCC(n4cc(C)c(=O)[nH]c4=O)CC3)c2)cc1 [Compound 21f, 5-Methyl-1-(1-(3-(p-tolyloxy)phenethyl)piperidin-4-yl)pyrimidine-2,4(1H,3H)-dione] | 49 ± 7 µM | 19 µM (≈ 7.97 µg/mL) | 8.42 µM | 0.44 |  | 
9 | Cc1cn(C2CCN(CCc3cccc(Oc4ccc(Cl)c(Cl)c4)c3)CC2)c(=O)[nH]c1=O [Compound 21g, 1-(1-(3-(3,4-Dichlorophenoxy)phenethyl)piperidin-4-yl)-5-methylpyrimidine-2,4(1H,3H)-dione] | 45 ± 2 µM | 19 µM (≈ 9.01 µg/mL) | 5.66 µM | 0.30 |  | 
10 | Cc1cn(C2CCN(CCc3cccc(Oc4ccc(Cl)cc4)c3)CC2)c(=O)[nH]c1=O [Compound 21h, 1-(1-(3-(4-Chlorophenoxy)phenethyl)piperidin-4-yl)-5-methylpyrimidine-2,4(1H,3H)-dione] | 49 ± 8 µM | 12.5 µM (≈ 5.5 µg/mL) | 5.81 µM | 0.46 |  | increase in IC50-value (MtbTMPK) relative to 21j (MtbTMPK [3]; compared with isomer 21j): 10 fold
11 | COc1ccc(Oc2cccc(CCN3CCC(n4cc(C)c(=O)[nH]c4=O)CC3)c2)cc1 [Compound 21i, 1-(1-(3-(4-Methoxyphenoxy)phenethyl)piperidin-4-yl)-5-methylpyrimidine-2,4(1H,3H)-dione] | 34 ± 5 µM | 25 µM (≈ 10.9 µg/mL) | > 64 µM | >2.56 |  | 
12 | Cc1cn(C2CCN(CCc3cccc(Oc4cccc(Cl)c4)c3)CC2)c(=O)[nH]c1=O [Compound 21j, 1-(1-(3-(3-Chlorophenoxy)phenethyl)piperidin-4-yl)-5-methylpyrimidine-2,4(1H,3H)-dione] |  | 19 µM (≈ 8.36 µg/mL) | 25.2 µM | 1.33 | significant improvement in the inhibitory potency | improvement of MtbTMPK inhibitory potency relative to 3 (MtbTMPK [3]; compared with compound 3): three; improvement of H37Rv growth inhibitory activity relative to 3 ([1]; compared with compound 3): two
13 | Cc1cn(C2CCN(CCc3cccc(Oc4ccc(C#N)cc4)c3)CC2)c(=O)[nH]c1=O [Compound 21k, 4-(3-(2-(4-(5-Methyl-2,4-dioxo-3,4-dihydropyrimidin-1(2H)-yl)piperidin-1-yl)ethyl)phenoxy)benzonitrile] | 126 ± 10 µM | ≥ 50 µM | > 64 µM |  | significant drop in MtbTMPK inhibitory potency | 
14 | Cc1cn(C2CCN(CCc3cccc(Oc4ccc([N+](=O)[O-])cc4)c3)CC2)c(=O)[nH]c1=O [Compound 21l, 5-Methyl-1-(1-(3-(4-nitrophenoxy)phenethyl)piperidin-4-yl)pyrimidine-2,4(1H,3H)-dione] | 91 ± 10 µM | 37 µM (≈ 16.7 µg/mL) | > 64 µM | >1.73 | significant drop in MtbTMPK inhibitory potency | 
15 | Cc1cn(C2CCN(CCc3cccc(Oc4ccc(C(F)(F)F)cc4)c3)CC2)c(=O)[nH]c1=O [Compound 21m, 5-Methyl-1-(1-(3-(4-(trifluoromethyl)phenoxy)phenethyl)piperidin-4-yl)pyrimidine-2,4(1H,3H)-dione] | 135 ± 22 µM | 37 µM (≈ 17.5 µg/mL) | > 64 µM | >1.73 | significant drop in MtbTMPK inhibitory potency | 
16 | Cc1cn(C2CCN(CCc3cccc(OCc4ccccc4Cl)c3)CC2)c(=O)[nH]c1=O [Compound 21o, 1-(1-(3-((2-Chlorobenzyl)oxy)phenethyl)piperidin-4-yl)-5-methylpyrimidine-2,4(1H,3H)-dione] | 70 ± 9 µM | 19 µM (≈ 8.63 µg/mL) | 7.08 µM | 0.37 |  | 
17 | Cc1cn(C2CCN(CCc3cccc(OCc4cccc(Cl)c4)c3)CC2)c(=O)[nH]c1=O [Compound 21q, 1-(1-(3-((3-Chlorobenzyl)oxy)phenethyl)piperidin-4-yl)-5-methylpyrimidine-2,4(1H,3H)-dione] | 44 ± 2 µM | 25 µM (≈ 11.3 µg/mL) | 19.8 µM | 0.79 |  | 
18 | Cc1cn(C2CCCN(CCc3cccc(Oc4ccccc4)c3)C2)c(=O)[nH]c1=O (centres unmarked) [Compound 23, 5-Methyl-1-(1-(3-phenoxyphenethyl)piperidin-3-yl)pyrimidine-2,4(1H,3H)-dione] |  |  |  |  |  | IC50 (MtbTMPK [3]): 192 ± 53 µM; loss/decrease in MtbTMPK inhibitory potency relative to 3 (MtbTMPK [3]; compared with compound 3): > 10 fold; MIC [1, 8]: > 50 µM; IC50 [4]: 21.8 µM
19 | Cc1cn(C2CCN(C(=O)Cc3cccc(Oc4ccccc4)c3)CC2)c(=O)[nH]c1=O [Compound 26, 5-Methyl-1-(1-(2-(3-phenoxyphenyl)acetyl)piperidin-4-yl)pyrimidine-2,4(1H,3H)-dione] |  |  |  |  | weak enzyme inhibition | IC50 (MtbTMPK [3]): 230 ± 63 µM; MIC [1, 8]: > 50 µM; IC50 [4]: > 64 µM
20 | c1ccc(Oc2cccc(CCN3CCC(c4ccccc4)CC3)c2)cc1 [Compound 27, 1-(3-Phenoxyphenethyl)-4-phenylpiperidine] |  |  |  | 1.29 | complete loss of the inhibitory potency | IC50 (MtbTMPK [3]; read-out: IC50 (MtbTMPK), ATP 0.5 mM, dTMP 0.05 mM, mean ± SD of at least two measurements, NI: no inhibition at a concentration of 0.2 mM): > 200 µM; MIC [1, 8]: 6.25 µM (≈ 2.23 µg/mL); antimycobacterial activity (H37Rv), in words ([1]; qualitative statement): potent antimycobacterial activity; IC50 [4]: 8.06 µM; cytotoxicity (MRC-5), in words (MRC-5 fibroblasts; qualitative statement, relative to antimycobacterial activity): equipotent cytotoxicity
